Measured values published in BindingDB's records for doi:10.1016/j.bmcl.2015.03.038 (Bristol Myers Squibb, 2015).
pIC50: −log10 of the molar value.

What was measured:
[1] = target: Neurogenic locus notch homolog protein 1 (Homo sapiens, UniProt P46531); test: Inhibition of Notch1 intracellular domain fragment transfected in human HeLa cells co-transfected with CBF1-PGL3 luciferase reporter vector by transactivation assay
[2] = target: Neurogenic locus notch homolog protein 3 (Human, UniProt Q9UM47); test: Inhibition of Notch3 intracellular domain fragment transfected in human HeLa cells co-transfected with CBF1-PGL3 luciferase reporter vector by transactivation assay
Neurogenic locus notch homolog protein 3, sequence (Q9UM47 whole entry, the tested form may be a part): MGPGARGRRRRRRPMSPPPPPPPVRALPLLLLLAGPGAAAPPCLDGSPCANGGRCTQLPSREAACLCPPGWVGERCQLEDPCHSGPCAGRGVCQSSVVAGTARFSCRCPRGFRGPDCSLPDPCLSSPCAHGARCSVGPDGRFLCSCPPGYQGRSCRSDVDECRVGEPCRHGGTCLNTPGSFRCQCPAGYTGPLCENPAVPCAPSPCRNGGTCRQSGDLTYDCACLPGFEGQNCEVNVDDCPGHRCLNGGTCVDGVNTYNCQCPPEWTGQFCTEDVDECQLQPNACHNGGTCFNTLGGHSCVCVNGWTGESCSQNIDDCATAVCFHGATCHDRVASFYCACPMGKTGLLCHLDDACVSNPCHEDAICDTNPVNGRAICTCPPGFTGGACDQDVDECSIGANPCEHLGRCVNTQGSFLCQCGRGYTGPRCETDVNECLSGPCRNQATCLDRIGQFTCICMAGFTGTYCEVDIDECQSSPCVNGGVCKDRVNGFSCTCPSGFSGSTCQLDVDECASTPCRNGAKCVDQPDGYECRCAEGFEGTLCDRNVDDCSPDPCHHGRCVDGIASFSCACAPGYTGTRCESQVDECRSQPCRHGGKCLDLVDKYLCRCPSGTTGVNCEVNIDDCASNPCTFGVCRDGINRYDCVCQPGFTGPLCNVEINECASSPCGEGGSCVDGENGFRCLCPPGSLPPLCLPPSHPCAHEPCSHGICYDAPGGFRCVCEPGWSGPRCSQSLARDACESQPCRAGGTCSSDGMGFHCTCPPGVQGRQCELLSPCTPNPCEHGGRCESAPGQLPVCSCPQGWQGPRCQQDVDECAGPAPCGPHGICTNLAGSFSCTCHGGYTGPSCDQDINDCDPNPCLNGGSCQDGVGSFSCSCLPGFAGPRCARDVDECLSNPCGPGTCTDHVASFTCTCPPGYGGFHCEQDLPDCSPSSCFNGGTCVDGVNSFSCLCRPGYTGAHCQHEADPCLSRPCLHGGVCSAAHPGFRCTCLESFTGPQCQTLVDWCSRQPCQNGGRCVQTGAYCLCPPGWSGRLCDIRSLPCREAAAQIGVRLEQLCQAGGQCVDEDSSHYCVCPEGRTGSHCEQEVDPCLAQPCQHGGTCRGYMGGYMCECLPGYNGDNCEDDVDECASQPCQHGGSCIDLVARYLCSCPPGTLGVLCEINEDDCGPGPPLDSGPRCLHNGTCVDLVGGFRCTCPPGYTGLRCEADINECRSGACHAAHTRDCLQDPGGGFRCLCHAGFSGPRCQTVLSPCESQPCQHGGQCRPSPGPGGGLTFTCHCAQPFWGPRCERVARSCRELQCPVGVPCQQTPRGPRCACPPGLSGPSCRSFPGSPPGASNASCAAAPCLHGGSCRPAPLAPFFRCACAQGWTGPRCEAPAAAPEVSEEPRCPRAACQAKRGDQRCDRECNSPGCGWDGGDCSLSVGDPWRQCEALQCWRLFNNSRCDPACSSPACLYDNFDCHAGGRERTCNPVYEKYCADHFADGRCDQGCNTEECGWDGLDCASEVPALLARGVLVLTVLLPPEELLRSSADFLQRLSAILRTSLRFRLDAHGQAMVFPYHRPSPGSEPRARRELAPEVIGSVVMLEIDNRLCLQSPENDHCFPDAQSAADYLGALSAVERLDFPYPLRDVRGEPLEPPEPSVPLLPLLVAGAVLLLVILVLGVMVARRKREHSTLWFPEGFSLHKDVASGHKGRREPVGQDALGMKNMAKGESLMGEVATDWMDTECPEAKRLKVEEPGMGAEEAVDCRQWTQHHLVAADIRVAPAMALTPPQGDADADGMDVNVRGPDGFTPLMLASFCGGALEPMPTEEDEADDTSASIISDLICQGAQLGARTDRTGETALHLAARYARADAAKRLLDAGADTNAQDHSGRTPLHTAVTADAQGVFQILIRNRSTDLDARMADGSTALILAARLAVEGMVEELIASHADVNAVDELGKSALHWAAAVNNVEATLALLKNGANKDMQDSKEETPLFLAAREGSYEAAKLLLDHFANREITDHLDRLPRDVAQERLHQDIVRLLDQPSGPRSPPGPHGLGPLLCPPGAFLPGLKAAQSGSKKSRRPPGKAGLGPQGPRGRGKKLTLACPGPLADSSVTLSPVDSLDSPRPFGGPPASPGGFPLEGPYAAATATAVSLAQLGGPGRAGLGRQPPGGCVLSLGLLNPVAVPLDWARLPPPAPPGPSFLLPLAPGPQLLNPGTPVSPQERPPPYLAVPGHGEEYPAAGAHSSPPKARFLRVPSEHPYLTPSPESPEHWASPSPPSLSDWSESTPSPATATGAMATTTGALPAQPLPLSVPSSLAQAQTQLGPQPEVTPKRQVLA

[3] = target: Neurogenic locus notch homolog protein 2 (Homo sapiens, UniProt Q04721); test: Inhibition of Notch2 intracellular domain fragment transfected in human HeLa cells co-transfected with CBF1-PGL3 luciferase reporter vector by transactivation assay
[4] = target: Neurogenic locus notch homolog protein 4 (Homo sapiens, UniProt Q99466); test: Inhibition of Notch4 intracellular domain fragment transfected in human HeLa cells co-transfected with CBF1-PGL3 luciferase reporter vector by transactivation assay

Neurogenic locus notch homolog protein 1, sequence (P46531 whole entry, the tested form may be a part): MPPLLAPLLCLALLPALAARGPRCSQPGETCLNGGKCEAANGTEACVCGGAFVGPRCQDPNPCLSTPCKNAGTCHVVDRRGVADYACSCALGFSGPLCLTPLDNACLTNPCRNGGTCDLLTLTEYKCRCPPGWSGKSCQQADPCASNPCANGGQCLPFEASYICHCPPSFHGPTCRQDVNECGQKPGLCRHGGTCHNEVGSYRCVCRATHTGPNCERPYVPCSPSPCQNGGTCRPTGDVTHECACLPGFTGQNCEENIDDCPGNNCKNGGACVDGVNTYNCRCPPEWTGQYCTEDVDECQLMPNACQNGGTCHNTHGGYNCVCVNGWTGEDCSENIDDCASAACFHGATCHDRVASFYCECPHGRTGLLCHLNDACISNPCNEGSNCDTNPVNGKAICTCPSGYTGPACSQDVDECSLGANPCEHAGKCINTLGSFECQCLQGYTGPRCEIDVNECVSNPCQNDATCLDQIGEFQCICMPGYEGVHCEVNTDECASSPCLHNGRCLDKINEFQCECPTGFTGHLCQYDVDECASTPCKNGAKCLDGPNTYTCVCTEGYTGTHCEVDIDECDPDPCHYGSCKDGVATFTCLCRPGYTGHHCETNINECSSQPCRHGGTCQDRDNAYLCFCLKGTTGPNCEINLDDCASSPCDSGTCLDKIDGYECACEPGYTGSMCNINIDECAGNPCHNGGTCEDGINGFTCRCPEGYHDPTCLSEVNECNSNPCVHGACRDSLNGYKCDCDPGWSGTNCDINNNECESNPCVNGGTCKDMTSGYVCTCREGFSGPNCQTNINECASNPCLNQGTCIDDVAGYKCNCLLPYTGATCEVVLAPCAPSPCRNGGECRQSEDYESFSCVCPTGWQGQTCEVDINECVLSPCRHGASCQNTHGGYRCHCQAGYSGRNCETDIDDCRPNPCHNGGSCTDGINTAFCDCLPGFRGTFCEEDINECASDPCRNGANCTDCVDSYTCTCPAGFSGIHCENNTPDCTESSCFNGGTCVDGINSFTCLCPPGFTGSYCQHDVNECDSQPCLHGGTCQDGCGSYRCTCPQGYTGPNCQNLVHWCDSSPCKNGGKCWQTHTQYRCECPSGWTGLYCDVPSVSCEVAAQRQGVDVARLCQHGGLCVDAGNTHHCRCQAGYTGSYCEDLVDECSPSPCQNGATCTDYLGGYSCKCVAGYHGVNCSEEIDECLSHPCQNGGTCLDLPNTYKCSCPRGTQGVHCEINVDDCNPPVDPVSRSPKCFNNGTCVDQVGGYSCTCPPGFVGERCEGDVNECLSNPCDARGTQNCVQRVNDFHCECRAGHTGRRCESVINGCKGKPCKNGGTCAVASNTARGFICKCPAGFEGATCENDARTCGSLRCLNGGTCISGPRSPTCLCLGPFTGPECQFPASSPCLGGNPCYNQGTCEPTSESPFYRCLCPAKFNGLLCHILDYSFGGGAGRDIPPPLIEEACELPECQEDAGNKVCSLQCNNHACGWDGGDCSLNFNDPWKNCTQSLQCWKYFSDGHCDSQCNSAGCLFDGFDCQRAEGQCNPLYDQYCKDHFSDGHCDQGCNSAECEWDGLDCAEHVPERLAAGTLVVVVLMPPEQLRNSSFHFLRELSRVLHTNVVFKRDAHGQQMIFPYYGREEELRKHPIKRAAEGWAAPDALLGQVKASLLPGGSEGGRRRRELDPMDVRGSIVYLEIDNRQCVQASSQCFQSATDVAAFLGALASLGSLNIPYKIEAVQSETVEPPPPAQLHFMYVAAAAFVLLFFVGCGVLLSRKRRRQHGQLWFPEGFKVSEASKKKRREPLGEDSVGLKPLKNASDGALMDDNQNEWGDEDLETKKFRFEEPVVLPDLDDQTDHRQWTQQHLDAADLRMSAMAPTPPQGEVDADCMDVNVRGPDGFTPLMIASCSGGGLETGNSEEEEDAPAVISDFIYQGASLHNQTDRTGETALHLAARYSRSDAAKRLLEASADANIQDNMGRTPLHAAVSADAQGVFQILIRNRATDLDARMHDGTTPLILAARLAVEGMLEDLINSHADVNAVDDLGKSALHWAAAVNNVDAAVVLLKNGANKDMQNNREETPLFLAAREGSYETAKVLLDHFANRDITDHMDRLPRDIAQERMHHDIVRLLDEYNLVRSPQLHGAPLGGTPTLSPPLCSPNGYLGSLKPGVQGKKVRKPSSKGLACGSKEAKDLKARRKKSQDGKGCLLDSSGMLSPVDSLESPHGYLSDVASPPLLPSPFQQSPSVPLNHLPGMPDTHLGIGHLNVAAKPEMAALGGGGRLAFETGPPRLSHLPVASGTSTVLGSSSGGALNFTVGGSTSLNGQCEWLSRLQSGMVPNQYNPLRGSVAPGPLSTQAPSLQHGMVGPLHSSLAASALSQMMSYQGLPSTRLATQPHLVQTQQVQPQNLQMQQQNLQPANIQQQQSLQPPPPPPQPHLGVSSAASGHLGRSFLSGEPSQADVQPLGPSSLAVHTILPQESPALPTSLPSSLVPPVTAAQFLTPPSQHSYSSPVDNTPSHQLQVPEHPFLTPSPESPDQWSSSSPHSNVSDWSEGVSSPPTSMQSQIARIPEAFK

| Structure (SMILES) | pIC50 [1] | pIC50 [2] | pIC50 [3] | pIC50 [4] |
| --- | --- | --- | --- | --- |
| Cc1cccc([C@H](C(N)=O)[C@@H](CCC(F)(F)F)C(=O)N[C@H]2N=C(c3ccccc3)c3ccccc3N(C)C2=O)c1 | 8.52 | 9.00 | – | – |
| CN1C(=O)[C@@H](NC(=O)[C@H](CCC(F)(F)F)[C@@H](C(N)=O)c2cc(F)cc(F)c2)N=C(c2ccccc2)c2ccccc21 | 8.70 | 8.70 | – | – |
| CN1C(=O)[C@@H](NC(=O)[C@H](CCC(F)(F)F)[C@@H](C(N)=O)c2ccc(F)c(F)c2)N=C(c2ccccc2)c2ccccc21 | 8.70 | 8.70 | – | – |
| CN1C(=O)[C@@H](NC(=O)[C@H](CCC(F)(F)F)[C@@H](C(N)=O)c2ccc(F)cc2)N=C(c2ccccc2)c2ccccc21 | 8.70 | 9.00 | – | – |
| CN1C(=O)[C@@H](NC(=O)[C@H](CCC(F)(F)F)[C@@H](C(N)=O)c2cccc(OC(F)(F)F)c2)N=C(c2ccccc2)c2ccccc21 | 8.52 | 8.40 | – | – |
| CCC[C@H](C(N)=O)[C@@H](CC(F)(F)F)C(=O)N[C@H]1N=C(c2ccccc2)c2ccccc2N(C)C1=O | 7.89 | 7.62 | – | – |
| CN1C(=O)[C@@H](NC(=O)[C@H](CCC(F)(F)F)[C@@H](C(N)=O)c2ccccc2)N=C(c2ccccc2)c2ccccc21 | – | – | 9.00 | 8.52 |
| NC(=O)[C@@H](c1ncon1)[C@@H](CCC(F)(F)F)C(=O)N[C@H]1N=C(c2ccccc2)c2ccccc2NC1=O | 5.92 | 6.18 | – | – |
| Cc1nocc1[C@H](C(N)=O)[C@@H](CCC(F)(F)F)C(=O)N[C@H]1N=C(c2ccccc2)c2ccccc2N(C)C1=O | 8.52 | 8.52 | – | – |
| CN1C(=O)[C@@H](NC(=O)[C@H](CCC(F)(F)F)[C@@H](C(N)=O)c2cccc(C(F)(F)F)c2)N=C(c2ccccc2)c2ccccc21 | 9.00 | 8.70 | – | – |
| NC(=O)[C@@H](c1cnoc1)[C@@H](CCC(F)(F)F)C(=O)N[C@H]1N=C(c2ccccc2)c2ccccc2NC1=O | 7.49 | 7.54 | – | – |
| CN1C(=O)[C@@H](NC(=O)[C@H](CCC(F)(F)F)[C@@H](C(N)=O)c2ccc(F)cc2F)N=C(c2ccccc2)c2ccccc21 | 9.00 | 9.00 | – | – |
| CCC(CC)[C@H](C(N)=O)[C@@H](CCC(F)(F)F)C(=O)N[C@H]1N=C(c2ccccc2)c2ccccc2N(C)C1=O | 9.00 | 9.00 | – | – |
| COc1ccc([C@H](C(N)=O)[C@@H](CCC(F)(F)F)C(=O)N[C@H]2N=C(c3ccccc3)c3ccccc3N(C)C2=O)cc1 | 8.05 | 8.22 | – | – |
| CN1C(=O)[C@@H](NC(=O)[C@H](CCC(F)(F)F)[C@@H](C(N)=O)c2cccc(S(C)(=O)=O)c2)N=C(c2ccccc2)c2ccccc21 | 5.69 | 5.65 | – | – |
| NC(=O)[C@@H](c1cocn1)[C@@H](CCC(F)(F)F)C(=O)N[C@H]1N=C(c2ccccc2)c2ccccc2NC1=O | 6.64 | 6.79 | – | – |
| CCC(CC)[C@H](C(N)=O)[C@@H](CC(C)C)C(=O)N[C@H]1N=C(c2ccccc2)c2ccccc2N(C)C1=O | 8.70 | – | – | – |
| Cc1cc([C@H](C(N)=O)[C@@H](CCC(F)(F)F)C(=O)N[C@H]2N=C(c3ccccc3)c3ccccc3N(C)C2=O)no1 | 7.27 | 7.21 | – | – |
| Cc1nc([C@H](C(N)=O)[C@@H](CCC(F)(F)F)C(=O)N[C@H]2N=C(c3ccccc3)c3ccccc3N(C)C2=O)no1 | 6.77 | 6.92 | – | – |
| CCC(CC)[C@H](C(N)=O)[C@@H](CC(C)(C)C)C(=O)N[C@H]1N=C(c2ccccc2)c2ccccc2N(C)C1=O | 8.52 | 8.52 | – | – |
